Drawing on ChEMBL document CHEMBL1146781, “Structural differences between paroxetine and femoxetine responsible for differential inhibition of Staphylococcus aureus efflux pumps” (2004), this text covers MIC, Concentration and Inhibition for five molecules.

Values after ≈ are worked out from the molar mass of the structure shown.

Assay [1] concerns Staphylococcus aureus. Put plainly: Minimum inhibitory concentration (MIC) against Staphylococcus aureus K2068; Range 12.5 1.6 ug/mL. It counts as functional.
Assay [2] concerns Staphylococcus aureus. Put plainly: Minimum inhibitory concentration (MIC) against Staphylococcus aureus 1199B; Range 50 - 6.3 ug/mL. The assay is classed as functional.
Assay [3] concerns Staphylococcus aureus. Put plainly: Concentration required to reduce Minimum inhibitory concentration (MIC) of Norfloxacin against Staphylococcus aureus 1199B by 8 folds. The assay is classed as functional, organism-based.
For assay [4], the system named is Staphylococcus aureus. The experiment in a line: Concentration required to reduce Minimum inhibitory concentration (MIC) of Norfloxacin against Staphylococcus aureus 1199B by 4 folds. The assay is classed as functional, organism-based.
In assay [5] the test system is Staphylococcus aureus. Put plainly: Percent inhibition of EtBr efflux against Staphylococcus aureus 1199B at 50 concentration. The assay is classed as functional.

As to `CCn1cc(C(=O)O)c(=O)c2cc(F)c(N3CCNCC3)cc21` [NORFLOXACIN], the MIC – broadly, the smallest concentration in the dilution series that meets the test's criterion for growth inhibition – against Staphylococcus aureus [1] was 12.5 mg/L (≈ 39.1 µM); against Staphylococcus aureus [2], 50 mg/L (≈ 157 µM).

In the assay with Staphylococcus aureus [3], `Fc1ccc([C@@H]2CCNC[C@H]2COc2ccc3c(c2)OCO3)cc1` had a Concentration of 25 µg/mL.

On to `Fc1ccc([C@H]2CCNC[C@@H]2COc2ccc3c(c2)OCO3)cc1`, for which the Concentration in the assay on Staphylococcus aureus [3] was 20 µg/mL.

Molecule `COC(=O)[C@H]1[C@H]2C[C@@H]3c4[nH]c5cc(OC)ccc5c4CCN3C[C@H]2C[C@@H](OC(=O)c2cc(OC)c(OC)c(OC)c2)[C@@H]1OC` came in with a Concentration in the assay with Staphylococcus aureus [4] of 20 µg/mL.

As to `CN1CC[C@@H](c2ccc(F)cc2)[C@H](COc2ccc3c(c2)OCO3)C1`, in the assay with Staphylococcus aureus [5], the Inhibition (as a rule, the share of the control response that was lost under treatment) is recorded as around 50%.
